Measured values: patent publication US9944597B2, “Polysubstituted pyrroles having microtubule-disrupting, cytotoxic and antitumor activities and methods of use thereof” (THE BOARD OF REGENTS OF THE UNIVERSITY OF TEXAS SYSTEM, priority 2013, dated 2018)
Read-outs that look alike come from different tables or passages of the source.

What was measured:
[1] = test system: A-10 cells; assay: Cellular microtubule loss by indirect immunofluorescence; type: cell-based, rat; details: Rattus norvegicus, A10; Table 50; concentration causing approximately 50% loss of interphase microtubules; read-out: EC50 Values (nM) for Microtubule Loss in A-10 cells
Description: The effects of representative compounds on cellular microtubules were evaluated in A-10 (embryonic rat vascular smooth muscle cell line) cells using indirect immunofluorescence techniques as previously described (Tinley et al., Cancer Res. 63, 3211-20 (2003)). Cells were visualized using a Nikon Eclipse 80i fluorescence microscope and NIS Elements software. Changes in both interphase and mitotic microtubules were noted and photographed. The EC50 values, the concentration that causes approximately 50% loss of interphase microtubules was determined by evaluating a range of concentrations of each compound and the percent cellular microtubule depolymerization that was observed visually at each concentration was noted.
Microtubules were visualized by indirect immunofluorescence using a β-tubulin antibody, and the DNA was visualized with DAPI. A representative concentration response curve for NT-7-16 is also shown in FIG. 1 that was used to calculate its corresponding EC50 for microtubule loss. Concentration response curves for microtubule loss were plotted using data from at least three experiments for each compound and the corresponding EC50 values for microtubule loss are presented in Table 50.

[2] = test system: SK-OV-3-MDR-1-6/6 cells; assay: Antiproliferative SRB assay, Pgp expressing SK-OV-3; type: cell-based, human; details: for IC50: Homo sapiens, SK-OV-3, Table 49, Pgp expressing line, 48 hr, SRB assay; for Rr (Pgp): relative resistance: IC50 of expressing line divided by IC50 of parental SK-OV-3
Description: (§1) Cell Culture. Various representative cancer and other cell lines were sourced and grown as described previously [Mooberry, S. L., et al., Mol. Pharm. 72, 132-140 (2007)]. MDA-MB-435 (human melanoma cancer cells), and MDA-MB-231 (human breast cancer cells) were grown in IMEM Richter's Medium (Life Technologies, Grand Island, N.Y.) with 10% FBS (Hyclone, Logan, Utah) and 25 μg/mL gentamicin sulfate (Life Technologies). A-10 (embryonic rat vascular smooth muscle cells) and HeLa (human cervical cancer cells), SK-OV-3 (human ovarian cancer cells) and SK-OV-3-MDR-1-M6/6 (a clone of the SK-OV-3 that was generated from SK-OV-3 cells by adenovirus-mediated expression of MDR1) were grown in Basal Medium Eagle (BME, Sigma-Aldrich, St. Louis, Mo.) containing Earle's salts, 50 μg/ml gentamicin sulfate, and 10% FBS. HeLa cells (a single-cell clone derived from transduction of HeLa cells with wild-type (WT) βIII-tubulin) were grown in Dulbecco's Modified Eagle's Medium (DMEM, Life Technologies) containing 50 μg/mL gentamicin sulfate and 10% FBS.
(§2) Antiproliferative Effects. The pyrrole compounds were evaluated for their antiproliferative effects in a panel of cancer cell lines. Cells were plated into 96-well plates at predetermined densities and allowed to attach and proliferate for 24 hr, and then the compounds were added. After a 48 hr exposure to the compounds, the cells were fixed with trichloroacetic acid and cellular protein was determined using the sulforhodamine B (SRB) assay (Skehan et al., J. Natl. Cancer Inst. 82, 1107-12, (1990); Boyd and Paull Drug Devel. Res. 34, 91-109, (1995)). Concentration response curves were constructed, and the IC50 (the concentration required to inhibit proliferation by 50%) values were determined from the linear portions of the log concentration-response curves as described previously [Tinley, T. L., et al., Cancer Res. 63, 3211-3220, (2003)] as shown in Table 48.
(§3) First, drug resistance mediated by the expression of βIII tubulin was evaluated in an isogenic HeLa cell line pair. Expression of the βIII tubulin isotype is associated with clinical drug resistance to the taxanes in ovarian cancer, non small-cell lung cancer and breast cancer [Galmarini, C. M., et al., Clin. Cancer Res. 14, 4511-4516 (2008)]. Secondly, drug resistance mediated by the expression of the drug efflux pump protein, Pgp, was evaluated in the isogenic SK-OV-3 cell line pair. […] All tubulin-binding anticancer drugs used currently in the clinic, except cabazitaxel, are substrates for Pgp, thus limiting their utility in drug resistant tumors [Penson, R. T., et al., Gynecol. Oncol. 93, 98-106 (2004)]. Differences in sensitivity between the parent and transformed cell line, indicative of resistance, was determined by calculating relative resistance (Rr) values in the two pairs of isogenic cell lines (dividing the IC50 of the expressing cell line by the IC50 of the parental cell line).

[3] = test system: HeLa WT-β-III cells; assay: Antiproliferative SRB assay, βIII-tubulin expressing HeLa; type: cell-based, human; details: for IC50: Homo sapiens, HeLa, Table 49, βIII tubulin expressing line, 48 hr, SRB assay; for Rr (β-III): relative resistance: IC50 of expressing line divided by IC50 of parental HeLa
Description: as §1, §2
(§4) First, drug resistance mediated by the expression of βIII tubulin was evaluated in an isogenic HeLa cell line pair. Expression of the βIII tubulin isotype is associated with clinical drug resistance to the taxanes in ovarian cancer, non small-cell lung cancer and breast cancer [Galmarini, C. M., et al., Clin. Cancer Res. 14, 4511-4516 (2008)]. Secondly, drug resistance mediated by the expression of the drug efflux pump protein, Pgp, was evaluated in the isogenic SK-OV-3 cell line pair. The expression of Pgp can lead to lower intracellular drug concentrations and diminished cytotoxic effects both in vitro and in vivo. All tubulin-binding anticancer drugs used currently in the clinic, except cabazitaxel, are substrates for Pgp, thus limiting their utility in drug resistant tumors [Penson, R. T., et al., Gynecol. Oncol. 93, 98-106 (2004)]. Differences in sensitivity between the parent and transformed cell line, indicative of resistance, was determined by calculating relative resistance (Rr) values in the two pairs of isogenic cell lines (dividing the IC50 of the expressing cell line by the IC50 of the parental cell line).

[4] = test system: MDA-MB-435 (human melanoma cancer cells); assay: Antiproliferative SRB assay, MDA-MB-435; type: cell-based; details: Homo sapiens, MDA-MB-435, read-out: MDA-MB-435 Anti-Proliferative Activity, IC50
Description: as §1, §2

[5] = target: T1, purified porcine brain tubulin (Sus scrofa, UniProt P02554); assay: Inhibition of polymerization of purified tubulin (absorbance at 340 nm); type: biochemical; details: compound at 2 μM
T1 construct: of Purified Porcine Brain Tubulin; from tissue; host or cells: porcine brain
T1 sequence (P02554 whole entry): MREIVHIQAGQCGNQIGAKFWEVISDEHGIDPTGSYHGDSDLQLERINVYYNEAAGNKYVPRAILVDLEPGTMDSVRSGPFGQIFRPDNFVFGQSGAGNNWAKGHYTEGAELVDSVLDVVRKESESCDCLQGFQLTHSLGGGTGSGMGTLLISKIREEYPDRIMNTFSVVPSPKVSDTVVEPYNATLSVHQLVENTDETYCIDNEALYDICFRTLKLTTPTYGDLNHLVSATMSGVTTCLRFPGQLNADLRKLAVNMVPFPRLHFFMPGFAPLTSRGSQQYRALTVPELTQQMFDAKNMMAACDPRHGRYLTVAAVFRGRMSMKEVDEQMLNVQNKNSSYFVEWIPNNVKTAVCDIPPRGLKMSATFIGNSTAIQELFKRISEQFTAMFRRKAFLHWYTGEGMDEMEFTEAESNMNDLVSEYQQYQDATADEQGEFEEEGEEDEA
T1 sequence (P02550 whole entry partner): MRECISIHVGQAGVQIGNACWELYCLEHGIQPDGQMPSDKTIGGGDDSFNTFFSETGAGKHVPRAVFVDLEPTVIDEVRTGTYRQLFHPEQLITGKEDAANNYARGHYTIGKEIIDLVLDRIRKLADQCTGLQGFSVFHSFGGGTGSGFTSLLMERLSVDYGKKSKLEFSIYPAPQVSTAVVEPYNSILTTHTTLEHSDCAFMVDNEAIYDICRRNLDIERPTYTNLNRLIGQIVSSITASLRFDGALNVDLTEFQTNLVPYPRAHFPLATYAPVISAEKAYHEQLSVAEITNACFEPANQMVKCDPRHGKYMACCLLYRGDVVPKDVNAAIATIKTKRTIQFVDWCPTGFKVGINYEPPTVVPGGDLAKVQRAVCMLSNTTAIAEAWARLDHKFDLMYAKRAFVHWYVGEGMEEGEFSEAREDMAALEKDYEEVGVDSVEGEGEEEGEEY

[6] = test system: HeLa (human cervical cancer cells); assay: Antiproliferative SRB assay, HeLa; type: cell-based; details: Homo sapiens, HeLa
Description: as §1, §2, §4

[7] = test system: SK-OV-3 (human ovarian cancer cells); assay: Antiproliferative SRB assay, SK-OV-3; type: cell-based; details: Homo sapiens
Description: as §1, §2, §3

[8] = test system: variety of cancer cell lines; details: against cancer cell lines; cited from earlier work
[9] = test system: HeLa cells; assay: Cell cycle distribution by flow cytometry; type: cell-based, human; details: HeLa cells treated for 18 hr; FIG. 3: 25 nM NT-7-16, 12.5 nM paclitaxel
Description: The effects of NT-7-16 on cell cycle distribution were determined. […] The cells were stained with Kirshan's reagent (Kirshan, Cell Biol. 66, 188-93 (1975)), and cell cycle distribution was measured using a Millipore Muse flow cytometer.
The effects of NT-7-16 on cell cycle distribution were determined. […] The cells were stained with Kirshan's reagent (Kirshan Cell Biol. 66, 188-93. (1975)), and cell cycle distribution was measured using a Millipore Muse flow cytometer.

[10] = target: colchicine binding site on tubulin (Sus scrofa, UniProt P02554); assay: Colchicine site binding, fluorometric assay
Sequence of colchicine binding site on tubulin (P02554 whole entry): as the sequence (P02554 whole entry) above
Sequence of colchicine binding site on tubulin (P02550 whole entry partner): as the sequence (P02550 whole entry partner) above

[11] = Table 48, 48 hr exposure, SRB assay
[12] = Table 48, 48 hr exposure, read-out: HeLa Anti-Proliferative Activity, IC50
[13] = Table 49, parental line, 48 hr, read-out: HeLa IC50
[14] = SK-OV-3, Table 48, 48 hr exposure, read-out: SK-OV-3 Anti-Proliferative Activity, IC50
[15] = SK-OV-3, Table 49, parental line, 48 hr, read-out: SK-OV-3 IC50

| SMILES | EC50 [1] [nM] | melting point [°C] | IC50 [2] [nM] | IC50 [3] [nM] | IC50 [4, 11] [nM] | IC50 ([4]; Table 52) [nM] | inhibition at 2 µM [5] [%] | IC50 [6, 12] [nM] | IC50 [7, 14] [nM] | effect on colchicine binding ([10]; at 100 μM) | effect on colchicine binding (FIG. 9) ([10]; result in words) | Rr (Pgp) [2] | Rr (β-III) [3] | IC50 [6, 13] [nM] | IC50 [7, 15] [nM] | fold less active than JG-03-14 in vitro [8] | cell cycle distribution [9] |
| --- | --- | --- | --- | --- | --- | --- | --- | --- | --- | --- | --- | --- | --- | --- | --- | --- | --- |
| CCOC(=O)c1[nH]c(C=NOC)c(-c2ccc(OC)c(OC)c2OC)c1Br (mixture of isomers) [Example 12, Cis/Trans-3-Bromo-4-(2,3,4-trimethoxyphenyl)-5-(O-methyl-oximino)-1H-pyrrole-2-carboxylic acid ethyl ester] | 22 | 125 to 128 | 17.5 ± 1.2 | 12.5 ± 0.2 | 7.6 ± 0.5 | 7.6 ± 0.5 | 99 | 11.9 ± 1.3 | 13.8 ± 0.9 | – | – | 1.3 | 1.1 | 11.9 ± 1.3 | 13.8 ± 0.9 | – | – |
| CCOC(=O)c1[nH]c(Br)c(-c2cc(OC)c(OC)c(OC)c2)c1Br [4-[(3,4,5-trimethoxy)-phenyl]-3,5-dibromopyrrole 2-carboxylic acid ethyl ester] | – | – | – | – | – | – | – | – | – | – | – | – | – | – | – | more than 350 fold | – |
| CCOC(=O)c1[nH]c(C=O)c(-c2ccc(OC)c(OC)c2OC)c1Br [Example 2, 3-Bromo-4-(2,3,4-trimethoxyphenyl)-5-formyl-1H-pyrrole 2-carboxylic acid ethyl ester] | 66 | 158 to 160 | 82.2 ± 9.4 | 104 ± 6.5 | 57 ± 5 | 57 ± 5 | 68 | 31.7 ± 4.8 | 72 ± 9.1 | – | – | 1.1 | 3.3 | 31.7 ± 4.8 | 72 ± 9.1 | – | – |
| CCOC(=O)c1[nH]c(C#N)c(-c2ccc(OC)c(OC)c2OC)c1Br [Example 11, 3-Bromo-4-(2,3,4-trimethoxyphenyl)-5-cyano-1H-pyrrole 2-carboxylic acid ethyl ester] | 88.1 | 173 to 176 | 42.2 ± 5.5 | 26.1 ± 0.8 | 19.6 ± 1.8 | 19.6 ± 1.8 | 78 | 20.6 ± 1.9 | 26.2 ± 2.1 | – | – | 1.6 | 1.3 | 20.6 ± 1.9 | 26.2 ± 2.1 | – | – |
| CC[C@]1(O)C[C@@H]2CN(CCc3c([nH]c4ccccc34)[C@@](C(=O)OC)(c3cc4c(cc3OC)N(C)[C@H]3[C@@](O)(C(=O)OC)[C@H](OC(C)=O)[C@]5(CC)C=CCN6CC[C@]43[C@@H]65)C2)C1 [vinblastine, reference compound] | – | – | – | – | – | – | – | – | – | no effect | does not | – | – | – | – | – | – |

Second part, led by results:

| EC50 [1] [nM] | melting point [°C] | IC50 [2] [nM] | IC50 [3] [nM] | IC50 [4, 11] [nM] | IC50 ([4]; Table 52) [nM] | inhibition at 2 µM [5] [%] | IC50 [6, 12] [nM] | IC50 [7, 14] [nM] | effect on colchicine binding ([10]; at 100 μM) | effect on colchicine binding (FIG. 9) ([10]; result in words) | SMILES | Rr (Pgp) [2] | Rr (β-III) [3] | IC50 [6, 13] [nM] | IC50 [7, 15] [nM] | fold less active than JG-03-14 in vitro [8] | cell cycle distribution [9] |
| --- | --- | --- | --- | --- | --- | --- | --- | --- | --- | --- | --- | --- | --- | --- | --- | --- | --- |
| 315 | 149 to 151 | 174 ± 12.5 | 184 ± 30.3 | 113 ± 6 | 113 ± 6 | 55 | 142 ± 11 | 227 ± 14 | – | – | CCOC(=O)c1[nH]c(C(F)F)c(-c2ccc(OC)c(OC)c2OC)c1Br [Example 6, 3-Bromo-4-(2,3,4-trimethoxyphenyl)-5-(difluoromethinyl)-1H-pyrrole 2-carboxylic acid ethyl ester] | 0.8 | 1.3 | 142 ± 11 | 227 ± 14 | – | – |
| – | – | 2330 | 21.1 ± 1.8 | 2 ± 0.1 | – | – | 1.5 ± 0.05 | – | – | – | CC(=O)O[C@H]1C(=O)[C@@]2(C)[C@H]([C@H](OC(=O)c3ccccc3)[C@]3(O)C[C@H](OC(=O)[C@H](O)[C@@H](NC(=O)c4ccccc4)c4ccccc4)C(C)=C1C3(C)C)[C@]1(OC(C)=O)CO[C@@H]1C[C@@H]2O [paclitaxel, reference compound] | – | 14.1 | 1.5 ± 0.05 | – | – | initiated mitotic accumulation |
